# Reference: the supplement of paper PMC10307832
# Legend:
# Assay in all cases: relative viability (nuclei count vs DMSO), 5 days (fraction); higher = more cells survive
# [1] = compound: CC1=CC=C(C=C1)C(=O)CN2C3=C(CCCC3)SC2=N [Pifithrin_alpha] + NC(=O)Nc1cc(-c2cccc(F)c2)sc1C(=O)N[C@H]1CCCNC1 [AZD7762] (partner 0.2 µM)
# In short: (§1)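 Relative viability equals treated-well nuclei counts divided by vehicle-well nuclei counts. Counts came from 4× images of lung cancer cell lines grown in 1536-well plates for 5 days after pin-tool dosing on the day after seeding. Dosing used one drug alone or a fixed anchor-drug dose plus five library-drug doses (not always all listed) in √10 steps, and values are medians of duplicate plates.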
# Axitinib + Palbociclib = compound: CNC(=O)c1ccccc1Sc1ccc2c(/C=C/c3ccccn3)n[nH]c2c1 [Axitinib] + CC(=O)c1c(C)c2cnc(Nc3ccc(N4CCNCC4)cn3)nc2n(C2CCCC2)c1=O [Palbociclib] (partner 0.5 µM)
# In short: as §1
# Axitinib + Linsitinib = compound: CNC(=O)c1ccccc1Sc1ccc2c(/C=C/c3ccccn3)n[nH]c2c1 [Axitinib] + C[C@]1(O)C[C@@H](c2nc(-c3ccc4ccc(-c5ccccc5)nc4c3)c3c(N)nccn32)C1 [Linsitinib] (partner 1 µM)
# In short: as §1
# [2] = compound: Nc1nc(Nc2ccc3c(c2)CC[C@@H](N2CCCC2)CC3)nn1-c1cc2c(nn1)-c1ccccc1CCC2 [Bemcentinib] + CC(=O)c1c(C)c2cnc(Nc3ccc(N4CCNCC4)cn3)nc2n(C2CCCC2)c1=O [Palbociclib] (partner 0.5 µM)
# In short: as §1
Cell Line,relative viability ([1]; first compound 1 µM),relative viability ([1]; first compound 3.162 µM),relative viability ([1]; first compound 10 µM),relative viability ([1]; first compound 31.62 µM),relative viability ([1]; first compound 100 µM),relative viability (Axitinib + Palbociclib; first compound 0.005 µM),relative viability (Axitinib + Palbociclib; first compound 0.01581 µM),relative viability (Axitinib + Palbociclib; first compound 0.05 µM),relative viability (Axitinib + Palbociclib; first compound 0.1581 µM),relative viability (Axitinib + Palbociclib; first compound 0.5 µM),relative viability (Axitinib + Linsitinib; first compound 0.005 µM),relative viability (Axitinib + Linsitinib; first compound 0.01581 µM),relative viability (Axitinib + Linsitinib; first compound 0.05 µM),relative viability (Axitinib + Linsitinib; first compound 0.1581 µM),relative viability (Axitinib + Linsitinib; first compound 0.5 µM),relative viability ([2]; first compound 0.04 µM),relative viability ([2]; first compound 0.1265 µM),relative viability ([2]; first compound 0.4 µM),relative viability ([2]; first compound 1.265 µM),relative viability ([2]; first compound 4 µM)
NCI-H1993,0.528,0.665,0.69,0.538,0.569,0.604,0.68,0.678,0.583,0.677,0.725,0.745,0.773,0.79,0.826,0.62,0.723,0.718,0.651,0.708
NCI-H2085,1,0.973,0.881,0.665,0.762,0.495,0.482,0.454,0.487,0.452,1.02,1,0.845,0.794,1,0.456,0.449,0.44,0.46,0.47
NCI-H2087,1.4,1.32,1.28,1.03,1.26,0.251,0.202,0.294,0.265,0.255,1.06,0.905,0.96,0.699,0.968,0.235,0.24,0.228,0.273,0.198
NCI-H2126,0.79,1.05,0.949,0.799,0.915,0.345,0.348,0.347,0.327,0.343,0.696,0.724,0.728,0.667,0.676,0.342,0.334,0.364,0.385,0.357
NCI-H2347,0.84,0.733,0.738,0.756,0.86,0.42,0.411,0.436,0.434,0.362,1.07,0.929,1.08,1.07,0.914,0.438,0.467,0.385,0.443,0.443
NCI-H2405,,0.654,0.651,0.579,0.615,0.505,0.524,0.542,0.517,0.537,0.945,1,1.07,1,1.11,0.555,0.549,0.528,0.59,0.583
NCI-H3122,1.07,1.1,0.962,0.739,1.08,0.171,0.198,0.205,0.206,0.184,1.02,0.991,1.05,1.05,1.07,0.148,0.192,0.155,0.192,0.201
PC-3 [JPC-3],,0.678,,0.464,0.446,0.558,,0.556,0.603,0.61,0.948,,0.972,0.944,0.986,0.548,0.577,0.522,0.592,0.551
PC-14,0.217,0.194,0.251,0.213,0.263,0.498,0.427,0.511,0.563,0.71,1.07,0.895,1.03,0.945,0.944,0.588,0.51,0.737,0.596,0.485
RERF-LC-KJ,0.628,0.882,0.941,0.981,0.854,1.09,1.16,1.03,1.14,1.11,0.962,0.81,0.901,0.834,0.947,0.964,1.07,1.05,1.24,1.18
